Results as given in patent US20150080438A1, “6,7-Dihydro-5H-benzo[7]annulene derivatives, processes for their preparation, pharmaceutical products comprising them and their use for preparing medicaments” (Bayer Intellectual Property GmbH, priority 2011, published 2015).

Tests used:
[1] = system: uterus growth induced by 17β-estradiol; assay: Anti-uterus growth test in the adult rat; format: in vivo; conditions: ovariectomized adult rat, percentage inhibition of uterus growth; for inhibition in vivo at 0.3 mg/kg: sc, 0.3 mg/kg s.c. d1-d3 with 1.5 μg/kg/day 17β-estradiol, read-out: Anti-oestrogenic activity in vivo in % at a dose of 0.3 mg/kg (rat); for Anti-oestrogenic activity in vivo in % at a dose of 1 mg/kg (rat): 1 mg/kg s.c. d1-d3 with 1.5 μg/kg/day 17β-estradiol
Source text: The uterus of oestrogen-substituted rats can be used as a test model for detecting a direct action of substances with anti-oestrogenic properties. The parameter of oestrogenic action is estradiol-induced uterus growth in rats, which is inhibited by simultaneous administration of a substance with anti-oestrogenic action. The experimental animals (n=5-6 animals/group) were ovariectomized before the start of the test, to rule out the influence of endogenous oestrogens. After a phase of 6 to 10 days, the test substances are administered s.c. on 3 consecutive days (d1-d3) in combination with a substitution dose of 1.5 μg/kg/day of 17β-estradiol. 17β-estradiol alone serves as positive control, and the excipients serve as negative control. On day 4 (d4) the animals are killed, and the uteri and vaginae are removed and weighed. The organ weights are converted to mg/100 g body weight, then the mean value and the standard deviation are calculated for each dosage. The inhibition of uterus or vaginal growth induced by 17β-estradiol is shown as percentage inhibition. The selected claimed substances were investigated in adult female rats as described for their anti-oestrogenic, inhibitory action on the weight of the uterus. At the dosage used, the substances show a marked anti-oestrogenic action in vivo (Table 3 and Table 4).

oestrogen receptor (ER) = target: T1, oestrogen receptor (ER) (Homo sapiens, UniProt P03372); assay: Anti-oestrogenic action in MVLN cells (inhibition of estradiol-induced luciferase, transactivation antagonism); format: cell-based; conditions: inhibition of estradiol-induced luciferase activity, read-out: Anti-oestrogenic action in vitro: MVLN transactivation antagonism IC50
T1 construct: These MVLN cells express, along with the functional oestrogen receptor (ER), a reporter construct; endogenous in cells; host or cells: MVLN cells (MCF7 derivative with ER-responsive luciferase reporter)
T1 sequence (P03372 1-595): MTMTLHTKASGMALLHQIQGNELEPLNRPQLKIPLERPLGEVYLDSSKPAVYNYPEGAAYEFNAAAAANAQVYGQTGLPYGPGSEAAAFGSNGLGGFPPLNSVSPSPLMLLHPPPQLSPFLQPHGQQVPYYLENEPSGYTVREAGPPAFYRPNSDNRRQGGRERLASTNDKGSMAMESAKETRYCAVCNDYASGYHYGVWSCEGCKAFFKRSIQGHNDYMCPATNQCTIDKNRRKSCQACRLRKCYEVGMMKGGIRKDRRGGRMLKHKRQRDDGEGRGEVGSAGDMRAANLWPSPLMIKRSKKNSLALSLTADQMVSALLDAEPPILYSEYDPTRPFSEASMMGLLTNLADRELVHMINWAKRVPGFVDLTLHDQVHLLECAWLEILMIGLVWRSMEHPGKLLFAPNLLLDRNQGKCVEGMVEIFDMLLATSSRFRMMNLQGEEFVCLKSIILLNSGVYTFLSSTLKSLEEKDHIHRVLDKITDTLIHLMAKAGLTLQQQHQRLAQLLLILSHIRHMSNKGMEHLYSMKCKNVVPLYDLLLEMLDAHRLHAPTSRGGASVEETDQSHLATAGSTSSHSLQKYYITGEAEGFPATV
Outline: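 MCF7-derived MVLN cells carrying an ER-driven luciferase reporter; test compounds applied with estradiol, and anti-oestrogenic action scored as inhibition of the estradiol-induced luciferase signal.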

Row | SMILES | IC50 (oestrogen receptor (ER)) | inhibition in vivo at 0.3 mg/kg [1] | Anti-oestrogenic activity in vivo in % at a dose of 1 mg/kg (rat) [1]
1 | CN(CCCCCCC1=C(c2ccccc2)CCCc2c1ccc(O)c2Cl)CCCS(=O)(=O)CCCC(F)(F)C(F)(F)F [Example 102, 4-Chloro-9-[6-(methyl{3-[(4,4,5,5,5-pentafluoropentyl)sulphonyl]propyl}amino)hexyl]-8-phenyl-6,7-dihydro-5H-benzo[7]annulen-3-ol] | 32 nM | 24% | 
2 | CN(CCCCCCC1=C(c2cccc(S(C)(=O)=O)c2)CCCc2cc(O)ccc21)CCC[S+]([O-])CCCC(F)(F)C(F)(F)F (racemic) [Example 21, 8-(3-Mesylphenyl)-9-[6-(methyl{3-[(RS)-(4,4,5,5,5-pentafluoropentyl)sulphinyl]propyl}amino)hexyl]-6,7-dihydro-5H-benzo[7]annulen-3-ol] | 5 nM | 37% | 
3 | CN(CCCCCCC1=C(c2cccnc2)CCCc2cc(O)ccc21)CCCS(=O)(=O)CCCC(F)(F)C(F)(F)F [Example 44, 9-[6-(Methyl{3-[(4,4,5,5,5-pentafluoropentyl)sulphonyl]propyl}amino)hexyl]-8-(3-pyridyl)-6,7-dihydro-5H-benzo[7]annulen-3-ol] | 7 nM | 32% | 
4 | CN(CCCCCCC1=C(c2ccccc2)CCCc2cc(O)ccc21)CCCCS(=O)(=O)CCCC(F)(F)F [Example 58, 9-[6-(Methyl{4-[(4,4,4-trifluorobutyl)sulphonyl]butyl}amino)hexyl]-8-phenyl-6,7-dihydro-5H-benzo[7]annulen-3-ol] | 3 nM | 88% | 
5 | CN(CCCCCC1=C(c2ccc(S(C)(=O)=O)cc2)CCCc2cc(O)ccc21)CCC[S+]([O-])CCCC(F)(F)C(F)(F)F (racemic) [Example 46, 8-(4-Mesylphenyl)-9-[5-(methyl{3-[(RS)-(4,4,5,5,5-pentafluoropentyl)sulphinyl]propyl}amino)pentyl]-6,7-dihydro-5H-benzo[7]annulen-3-ol] | 14 nM |  | 31%
6 | CN(CCCCCC1=C(c2ccccc2)CCCc2cc(O)ccc21)CCCS(=O)(=O)CCCC(F)(F)C(F)(F)F [Example 3, 9-[5-(Methyl{3-[(4,4,5,5,5-pentafluoropentyl)sulphonyl]propyl}amino)pentyl]-8-phenyl-6,7-dihydro-5H-benzo[7]annulen-3-ol] | 15 nM |  | 64%
7 | CN(CCCCCCC1=C(c2cccc(O)c2)CCCc2cc(O)ccc21)CCCCCCS(=O)(=O)CCCC(F)(F)C(F)(F)F [Example 19, 8-(3-Hydroxyphenyl)-9-[6-(methyl{6-[(4,4,5,5,5-pentafluoropentyl)sulphonyl]hexyl}amino)hexyl]-6,7-dihydro-5H-benzo[7]annulen-3-ol] | 5 nM | 38% | 
8 | CN(CCCCCC1=C(c2ccc(S(C)(=O)=O)cc2)CCCc2cc(O)ccc21)CCCSCCCC(F)(F)C(F)(F)F [Example 45, 8-(4-Mesylphenyl)-9-[5-(methyl{3-[(4,4,5,5,5-pentafluoropentyl)sulphanyl]propyl}amino)pentyl]-6,7-dihydro-5H-benzo[7]annulen-3-ol] | 65 nM |  | 
9 | CCN(CCCCCCC1=C(c2ccccc2)CCCc2cc(O)ccc21)CCC[S+]([O-])CCCC(F)(F)C(F)(F)F (racemic) [Example 68, 9-[6-(Ethyl{3-[(RS)-(4,4,5,5,5-pentafluoropentyl)sulphinyl]propyl}amino)hexyl]-8-phenyl-6,7-dihydro-5H-benzo[7]annulen-3-ol] | 5 nM |  | 
10 | O=S(=O)(CCCN(CCO)CCCCCCC1=C(c2cccc(O)c2)CCCc2cc(O)ccc21)CCC(F)(F)F [Example 98, 9-{6-[(2-Hydroxyethyl){3-[(3,3,3-trifluoropropyl)sulphonyl]propyl}amino]hexyl}-8-(3-hydroxyphenyl)-6,7-dihydro-5H-benzo[7]annulen-3-ol] | 3 nM |  | 
11 | CN(CCCCCCC1=C(c2ccccc2)CCCc2cc(O)ccc21)CCC[S+]([O-])CCC(F)(F)F (racemic) [Example 59, 9-[6-(Methyl{3-[(RS)-(3,3,3-trifluoropropyl)sulphinyl]propyl}amino)hexyl]-8-phenyl-6,7-dihydro-5H-benzo[7]annulen-3-ol] | 10 nM |  | 
12 | O=S(=O)(CCCN(CCO)CCCCCCC1=C(c2ccc(F)c(O)c2)CCCc2c1ccc(O)c2F)CCCC(F)(F)C(F)(F)F [Example 115, 4-Fluoro-8-(4-fluoro-3-hydroxyphenyl)-9-{6-[(2-hydroxyethyl){3-[(4,4,5,5,5-pentafluoropentyl)sulphonyl]propyl}amino]hexyl}-6,7-dihydro-5H-benzo[7]annulen-3-ol] | 12 nM |  | 
13 | CN(CCCCCCC1=C(c2cccc(O)c2)CCCc2cc(O)ccc21)CCCCS(=O)(=O)CCCC(F)(F)C(F)(F)F [Example 15, 8-(3-Hydroxyphenyl)-9-[6-(methyl{4-[(4,4,5,5,5-pentafluoropentyl)sulphonyl]butyl}amino)hexyl]-6,7-dihydro-5H-benzo[7]annulen-3-ol] | 3 nM |  | 
14 | [O-][S+](CCCN(CCCO)CCCCCCC1=C(c2ccccc2)CCCc2cc(O)ccc21)CCCC(F)(F)C(F)(F)F (racemic) [Example 72, 9-{6-[(3-Hydroxypropyl){3-[(RS)-(4,4,5,5,5-pentafluoropentyl)sulphinyl]propyl}amino]hexyl}-8-phenyl-6,7-dihydro-5H-benzo[7]annulen-3-ol] | 4 nM |  | 

Compounds with a lower IC50 (oestrogen receptor (ER)), results first:

Row | IC50 (oestrogen receptor (ER)) | SMILES | inhibition in vivo at 0.3 mg/kg [1] | Anti-oestrogenic activity in vivo in % at a dose of 1 mg/kg (rat) [1]
15 | 2 nM | CN(CCCCCCC1=C(c2cccc(O)c2)CCCc2cc(O)ccc21)CCCS(=O)(=O)CCCC(F)(F)F [Example 51, 8-(3-Hydroxyphenyl)-9-[6-(methyl{3-[(4,4,4-trifluorobutyl)sulphonyl]propyl}amino)hexyl]-6,7-dihydro-5H-benzo[7]annulen-3-ol] | 62% | 
16 | 2 nM | CN(CCCCCCC1=C(c2cccc(O)c2)CCCc2cc(O)ccc21)CCCCC[S+]([O-])CCCC(F)(F)C(F)(F)F (racemic) [Example 16, 8-(3-Hydroxyphenyl)-9-[6-(methyl{5-[(RS)-(4,4,5,5,5-pentafluoropentyl)sulphinyl]pentyl}amino)hexyl]-6,7-dihydro-5H-benzo[7]annulen-3-ol] |  | 
17 | 2 nM | CN(CCCCCCC1=C(c2cccc(O)c2)CCCc2cc(O)ccc21)CCCS(=O)(=O)CCC(F)(F)C(F)(F)F [Example 54, 8-(3-Hydroxyphenyl)-9-[6-(methyl{3-[(3,3,4,4,4-pentafluorobutyl)sulphonyl]propyl}amino)hexyl]-6,7-dihydro-5H-benzo[7]annulen-3-ol] |  | 
18 | 2 nM | COCCN(CCCCCCC1=C(c2ccc(F)c(O)c2)CCCc2cc(O)ccc21)CCCS(=O)(=O)CCCC(F)(F)C(F)(F)F [Example 105, 8-(4-Fluoro-3-hydroxyphenyl)-9-{6-[(2-methoxyethyl){3-[(4,4,5,5,5-pentafluoropentyl)sulphonyl]propyl}amino]hexyl}-6,7-dihydro-5H-benzo[7]annulen-3-ol] |  | 
19 | 2 nM | CN(CCCCCCC1=C(c2cccc(O)c2)CCCc2cc(O)ccc21)CCCC[S+]([O-])CCCC(F)(F)C(F)(F)F (racemic) [Example 14, 8-(3-Hydroxyphenyl)-9-[6-(methyl{4-[(RS)-(4,4,5,5,5-pentafluoropentyl)sulphinyl]butyl}amino)hexyl]-6,7-dihydro-5H-benzo[7]annulen-3-ol] |  | 
20 | 2 nM | CN(CCCCCC[S+]([O-])CCCC(F)(F)C(F)(F)F)CCCCCC1=C(c2cccc(O)c2)CCCc2cc(O)ccc21 (racemic) [Example 10, 8-(3-Hydroxyphenyl)-9-[5-(methyl{6-[(RS)-(4,4,5,5,5-pentafluoropentyl)sulphinyl]hexyl}amino)pentyl]-6,7-dihydro-5H-benzo[7]annulen-3-ol] |  | 
21 | 1 nM | CN(CCCCCCC1=C(c2cccc(O)c2)CCCc2cc(O)ccc21)CCCCS(=O)(=O)CCCC(F)(F)F [Example 52, 8-(3-Hydroxyphenyl)-9-[6-(methyl{4-[(4,4,4-trifluorobutyl)sulphonyl]butyl}amino)hexyl]-6,7-dihydro-5H-benzo[7]annulen-3-ol] |  | 
